The test system of one data set is human skin. The experiment in a line: staining (inking) of skin. It is filed as in vivo. As to conditions: liquid form, dissolved genipin. The procedure: In liquid form, the composition consists of at least a solvent and dissolved genipin in an amount in the range of 10 mM to 200 mM (millimolar), with a preference towards the upper end of this range. […] The ultimate upper limit of 200 mM is the amount where the tattoo applicator becomes too stiff and ultimately impractical to use. The solvent may be pure water, or alternatively buffered water. It has been discovered that maintaining an optimal pH of 7.4 produces the highest degree of effectiveness. Use of a buffer allows such a pH to be accurately maintained at the optimal level of 7.4. However, for efficacy pure water may be used instead of buffered water. The pH of water is 7.0, which reasonably approximates the determined optimal pH, and is within a range of pH values which lead to preferred results. In a preferred embodiment, isopropyl alcohol or ethyl alcohol is added to the formulation to provide enhanced drying capabilities and increased genipin solubility. Generally, the use of water as the solvent is preferred over other possible solvents because certain steps in the inking or staining reaction depend on water as a catalyst. […] Water has a viscosity of 1 centipoise (cP), which is a very low level and one that has been determined to be preferred for the composition of the invention. […]

For data set [1] the following is noted: at basic pH; cited from earlier work.
Another data set has as its system cells. Particulars: cited from earlier work.
The nature of data set [2]: solubility limit of genipin in the liquid composition. The data set is classed as physicochemical. As to conditions: liquid composition: solvent with dissolved genipin; liquid form, solvent water or buffered water. How it is done:
In liquid form, the composition consists of at least a solvent and dissolved genipin in an amount in the range of 10 mM to 200 mM (millimolar), with a preference towards the upper end of this range. […] The ultimate upper limit of 200 mM is the amount where the tattoo applicator becomes too stiff and ultimately impractical to use. The solvent may be pure water, or alternatively buffered water. It has been discovered that maintaining an optimal pH of 7.4 produces the highest degree of effectiveness. Use of a buffer allows such a pH to be accurately maintained at the optimal level of 7.4. However, for efficacy pure water may be used instead of buffered water. The pH of water is 7.0, which reasonably approximates the determined optimal pH, and is within a range of pH values which lead to preferred results. In a preferred embodiment, isopropyl alcohol or ethyl alcohol is added to the formulation to provide enhanced drying capabilities and increased genipin solubility.

Converted amounts (≈) assume the structure as drawn.

Consider `COC(=O)C1=CO[C@@H](O)[C@@H]2C(CO)=CC[C@H]12` [genipin], for which the “minimum concentration required for staining to take effect” value in the data set on human skin amounted to 10 mM. Also, in data set [1], the stability in solution entry is “unstable and undergoes self-polymerization”. Further, the “cytotoxicity (harmfulness to cells)” value in the data set with cells is “low cytotoxicity”. For the same compound, the solubility in data set [2] stood at 95 mM (≈ 21.5 mg/mL).

Usually solubility stands for how much of the substance goes into solution per volume. Low values mean a poorly soluble substance, high ones a readily soluble substance.
